pIC50, pKi: −log10 of the molar value.
Assays:
[1] = target: T1, Purine nucleoside phosphorylase (Homo sapiens, UniProt P00491); assay: Inhibitory concentration against human erythrocytic purine nucleoside phosphorylase in the presence of 50 mM (pi) […]
T1 sequence (P00491 whole entry): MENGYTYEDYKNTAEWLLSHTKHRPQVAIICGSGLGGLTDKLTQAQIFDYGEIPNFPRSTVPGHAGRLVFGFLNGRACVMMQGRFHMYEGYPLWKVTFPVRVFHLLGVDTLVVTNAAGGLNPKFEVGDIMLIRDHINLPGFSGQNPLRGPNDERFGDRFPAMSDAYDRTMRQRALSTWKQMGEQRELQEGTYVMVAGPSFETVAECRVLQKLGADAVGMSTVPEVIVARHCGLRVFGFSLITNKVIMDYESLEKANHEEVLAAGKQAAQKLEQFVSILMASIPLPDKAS

[2] = target: T2, Purine nucleoside phosphorylase (Bos taurus, UniProt P55859); assay: Inhibitory concentration against calf spleen purine nucleoside phosphorylase in the presence of 50 mM (pi) […]
T2 sequence (P55859 whole entry): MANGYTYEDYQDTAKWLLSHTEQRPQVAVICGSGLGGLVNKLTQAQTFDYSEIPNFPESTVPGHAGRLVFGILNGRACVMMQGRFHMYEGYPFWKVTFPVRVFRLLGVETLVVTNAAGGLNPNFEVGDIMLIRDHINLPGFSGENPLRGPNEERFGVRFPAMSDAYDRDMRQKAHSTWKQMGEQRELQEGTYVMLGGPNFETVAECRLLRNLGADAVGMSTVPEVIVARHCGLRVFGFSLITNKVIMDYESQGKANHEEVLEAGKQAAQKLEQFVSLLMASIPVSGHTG

[3] = target: T1, Purine nucleoside phosphorylase; assay: Tested for its inhibitory activity against human erythrocytic purine nucleoside phosphorylase
[4] = target: T1, Purine nucleoside phosphorylase; assay: Inhibitory activity against human erythrocytic purine nucleoside phosphorylase in the presence of 1 mM (pi) […]
[5] = target: T2, Purine nucleoside phosphorylase; assay: Inhibitory activity against calf spleen purine nucleoside phosphorylase in the presence of 1 mM (pi) […]

Row | SMILES | pIC50 [1] | pIC50 [2] | pKi [3] | also measured
1 | Nc1nc(O)c2ncn(Cc3ccccc3C(F)C(F)(F)P(=O)(O)O)c2n1 (stereo not given) | 7.07 | 7.00 |  | 
2 | Nc1nc2c(ncn2CCCCC(F)(F)P(=O)(O)O)c(=O)[nH]1 |  |  | 7.74 | 
3 | Nc1nc(O)c2ncn(Cc3ccccc3CC(F)(F)P(=O)(O)O)c2n1 |  | 6.70 |  | 
4 | Nc1nc(O)c2ncn(Cc3ccccc3/C=C/P(=O)(O)O)c2n1 | 6.81 | 7.07 |  | pKi [4]: 8.49
5 | Nc1nc(O)c2ncn(Cc3ccccc3/C=C(\F)P(=O)(O)O)c2n1 |  | 7.22 |  | pKi [5]: 9.10
6 | Nc1nc(O)c2nc(N)n(Cc3ccccc3)c2n1 |  |  | 6.70 | 
